From ChEMBL document CHEMBL1158587, “Chloramultiols A-F, lindenane-type sesquiterpenoid dimers from Chloranthus multistachys” (J Nat Prod, 2010)

Key:
Type in all cases: functional, cell-based
HL-60 = test: Cytotoxicity against human HL60 cells by MTT assay
SMMC-7721 = test: Cytotoxicity against human SMMC7721 cells by MTT assay
SK-BR-3 = test: Cytotoxicity against human SKBR3 cells by MTT assay
A549 = test: Cytotoxicity against human A549 cells by MTT assay
PANC-1 = test: Cytotoxicity against human PANC1 cells by MTT assay

Measured: IC50

CC1=C2C3=C4[C@@](C)(C(=O)[C@@]2(O)OC1=O)[C@@H]1C[C@@H]1[C@@]4(O)C[C@@H]1[C@]32OC(=O)C3=C2C[C@H]2[C@](O)(COC(=O)/C(C)=C/COC(=O)CCC(=O)OC3)[C@H]3C[C@H]3[C@]12C [SPICACHLORANTIN B]
> 10 µM: all assays above

CC(=O)OC[C@@H]1[C@H]2C[C@H]2[C@]2(C)[C@@H]3C[C@@]4(O)C5=C(C6=C(C)C(=O)O[C@]6(O)[C@H](O)[C@@]5(C)[C@@H]5C[C@@H]54)[C@@]34OC(=O)C(CO)=C4C[C@@H]12 [CHLORAMULTIOL E]
> 10 µM: all assays above

CC1=C2C3=C4[C@](C)([C@@H]5C[C@@H]5[C@@]4(O)C[C@@H]4[C@]35OC(=O)C3=C5C[C@H]5[C@](O)(COC(=O)/C(C)=C/COC(=O)CCC(=O)OC3)[C@H]3C[C@H]3[C@]45C)[C@@H](O)[C@@]2(O)OC1=O [CHLORAMULTILIDE C]
> 10 µM: all assays above

CO[C@]12OC(=O)C(C)=C1C1=C3C(=C[C@@H]4[C@]15OC(=O)C1=C5C[C@H]5[C@](O)(COC(=O)/C(C)=C/COC(=O)CCC(=O)OC1)[C@H]1C[C@H]1[C@]45C)[C@H]1C[C@H]1[C@]3(C)[C@H]2O [CHLORAMULTIOL F]
> 10 µM: all assays above

COC(=O)[C@]1(C)CC2=C3C=C(C(=O)[C@H](O)[C@@]3(C)[C@@H]3C[C@H]23)[C@](C)(C(=O)OC)CC2=C3C=C1C(=O)[C@H](O)[C@@]3(C)[C@@H]1C[C@H]21 [Cycloshizukaol A]
> 10 µM: all assays above

C/C=C(\C)C(=O)OC[C@]1(O)[C@H]2C[C@H]2[C@]2(C)[C@@H]3C[C@@]4(O)C5=C(C6=C(C)C(=O)O[C@]6(O)C(=O)[C@@]5(C)[C@@H]5C[C@@H]54)[C@@]34OC(=O)C(CO)=C4C[C@@H]12 [CHLORAMULTIOL D]
> 10 µM: all assays above

COC(=O)/C(C)=C1/C(=O)[C@H](O)[C@]2(C)C3=C1[C@]14OC(=O)C(COC(C)=O)=C1C[C@H]1C[C@H]5C[C@H]5[C@]1(C)[C@@H]4C[C@]3(O)[C@H]1C[C@H]12 [SHIZUKAOL D]
> 10 µM: all assays above

C/C=C(\C)C(=O)OC[C@]1(O)[C@H]2C[C@H]2[C@]2(C)[C@@H]3C[C@@]4(O)C5=C(C6=C(C)C(=O)O[C@]6(OC)[C@H](O)[C@@]5(C)[C@@H]5C[C@@H]54)[C@@]34OC(=O)C(CO)=C4C[C@@H]12 [CHLORAMULTIOL C]
> 10 µM: all assays above

CC1=C2C3=C4[C@](C)([C@@H]5C[C@@H]5[C@@]4(O)C[C@@H]4[C@]35OC(=O)C(CO)=C5C[C@H]3[C@](O)(CO)[C@H]5C[C@H]5[C@]43C)[C@@H](O)[C@@]2(O)OC1=O [CHLORAMULTIOL B]
> 10 µM: all assays above

C/C=C(\C)C(=O)OC[C@]1(O)[C@H]2C[C@H]2[C@]2(C)[C@@H]3C[C@@]4(O)C5=C(C6=C(C)C(=O)O[C@]6(O)[C@H](O)[C@@]5(C)[C@@H]5C[C@@H]54)[C@@]34OC(=O)C(CO)=C4C[C@@H]12 [CHLORAMULTILIDE D]
> 10 µM: all assays above

C/C=C(\C)C(=O)OCC1=C2C[C@H]3[C@H](O)[C@H]4C[C@H]4[C@]3(C)[C@@H]3C[C@@]4(O)C5=C(/C(=C(/C)C(=O)OC)C(=O)[C@H](O)[C@@]5(C)[C@@H]5C[C@@H]54)[C@]23OC1=O [SHIZUKAOL C]
> 10 µM: all assays above

COC(=O)/C(C)=C1\C(=O)[C@H](O)[C@]2(C)C3=C([C@H]4C[C@H]42)[C@H](O)[C@@H]2[C@]4(OC(=O)C5=C4C[C@H]4[C@](O)(COC(=O)/C(C)=C/COC(=O)CCC(=O)OC5)[C@H]5C[C@H]5[C@]24C)[C@H]31 [CHLORAMULTIOL A]
> 10 µM: all assays above
